In experiment [1] the test system is Tetranychus urticae Koch. The experiment is described as follows: Mite adulticide pre-infection test (MI). It is filed as in vivo. The conditions noted are these: cowpea plants sprayed to run off with 300 ppm, adult mites transferred one day after treatment, examined five days later. Here is the method:
The remaining examples relate to the miticidal use of the compounds of this invention. In all these examples, a stock solution for the compounds was prepared at 3000 ppm by dissolving each compound to be tested in acetone with 0.67% Tween (v/v), a wetting agent. […] For each example that follows, this stock solution was used and the specificized dilutions made. All the tests discussed below, which involved treatment with compounds of this invention were always repeated with controls, in which the active compound was not provided, to permit a comparison upon which the percent control was calculated. One day before treatment of cowpea primary leaves with the test solutions, rings of tree tanglefoot were applied to each of two cowpea primary leaves, one from each of two plants in a pot. For the mite adulticide pre-infection tests, plants were sprayed to run off with a 300 ppm solution diluted from the 3000 ppm stock solution. One day following treatment of the plants with the test solution, groups of approximately 25 adult mites were transferred into the rings. Five days later these rings were examined for live mites remaining on the leaves. The percent control was estimated based on the number of mites surviving on the control plants.

Experiment [2] relates to Tetranychus urticae Koch. The experiment is described as follows: Mite ovicide test (MIOV). It is filed as in vivo. Particulars: mite eggs on cowpea leaves, sprayed to run off with 100 ppm, examined nine days after treatment, based on unhatched eggs. The protocol:
The remaining examples relate to the miticidal use of the compounds of this invention. In all these examples, a stock solution for the compounds was prepared at 3000 ppm by dissolving each compound to be tested in acetone with 0.67% Tween (v/v), a wetting agent. […] For each example that follows, this stock solution was used and the specificized dilutions made. All the tests discussed below, which involved treatment with compounds of this invention were always repeated with controls, in which the active compound was not provided, to permit a comparison upon which the percent control was calculated. One day before treatment of cowpea primary leaves with the test solutions, rings of tree tanglefoot were applied to each of two cowpea primary leaves, one from each of two plants in a pot. For the mite ovicide tests, groups of adult mites (Tetranychus urticae Koch) were transferred into the rings one day before treatment and the females were allowed to deposit eggs until one hour before treatment, at which point all the adults were removed. The plants were then sprayed to run off with a 100 ppm solution diluted from the 3000 ppm stock solution. Nine days following treatment the ovicide rings were examined for unhatched eggs and living immature mites. The percent control was estimated based on the number of unhatched eggs.

Each structure is given as a SMILES string.

`COc1ccc(-c2ccccc2)cc1N1CN(C)CN1C(=O)OC(C)C` [Compound 1, 1-methylethyl 2-(4-methoxy-[1,1′-biphenyl]-3-yl)-4-methyl-1,2,4-triazolidine-1-carboxylate]: the “Percent Control MI” value in experiment [1] was found to be 100%. Further, the “Percent Control MIOV” value in experiment [2] turned out to be 100%.
